# Laboratory results published in PMC11589570, “Critical assessment of LC3/GABARAP ligands used for degrader development and ligandability of LC3/GABARAP binding pockets” (Nature Communications, 2024).
# Values joined by “and” are separate entries in the source; they are usually repeats but may differ in a detail not shown here. Identical values can stand only once.
# Legend:
# [1] = tested on: RPE1 cells; assay: Cell growth assay (IncuCyte confluence over 72 h); type: cell-based; conditions: listed as KT1
# Procedure: Cell growth assay: Cell confluence (phase) from RPE1 (hTERT RPE-1, ATCC CLR_4000) or U2OS (ATCC, HTB-96) cell lines were monitored over time with the IncuCyte S3 (Sartiorius, Germany) in 384-well plates in 50 ul DMEM media, supplemented with 10% Fetal Bovine Serum (FBS) 1% penicillin/Streptomycin and incubated 24 h before treatment. Experiment was performed as described in Cano-Franco et al.. 50 μl of media containing either 2× final concentration of indicated compounds in or control compounds (final conc.: 0.1% DMSO, 250 nM Torin1, 200 ng/mL Bafilomycin) were added and images were taken every two hours over 72 h. Cell confluence is represented as % of area covered by cells. Each data point represents the average ratio or confluence obtained from three individual wells of the plate.
# [2] = biological target: LC3B (Homo sapiens, UniProt Q9GZQ8); assay: FP assay with Cy5-labelled p62 LIR tracer (protein titration and tracer displacement); type: binding; conditions: for normalized FP signal, p62 LIR tracer displacement: LC3B; for compound titration LC3B (displacement curve, FP signal): two replicate columns per compound
# [3] = biological target: T1, LC3A (Homo sapiens, UniProt Q9H492); assay: Isothermal titration calorimetry (ITC); type: binding; conditions: LC3A
# Description: To minimize nonspecific dilution heat effects, DMSO concentrations in the protein and compound samples were matched. […] For this protocol, the chamber was pre-equilibrated with the protein, and the test compounds were titrated while continuously measuring the rate of exothermic heat evolution. The heat of binding was integrated, corrected, and fitted to an independent single-binding site model based on the manufacturer’s instructions, from which thermodynamic parameters (ΔH and TΔS), equilibrium association and dissociation constants (KA and KD, respectively), and stoichiometry (n) were calculated using TA Instruments NanoAnalyze software.
# [4] = biological target: T1, LC3A; assay: FP assay with Cy5-labelled p62 LIR tracer (protein titration and tracer displacement); type: binding; conditions: two replicate columns per compound
# [5] = log10 concentration [M] -3.82391
# [6] = log10 concentration [M] -4.1549
# [7] = log10 concentration [M] -4.60206
# [8] = log10 concentration [M] -5.30103
# [9] = log10 concentration [M] -5.69897
# [10] = log10 concentration [M] -6.22185
# [11] = log10 concentration [M] -6.69897
# [12] = log10 concentration [M] -7.30103
# [13] = log10 concentration [M] -7.79588
# [14] = log10 concentration [M] -8.08092
smiles,measurement,setting,value
Cc1ccc(C)c(S(=O)(=O)Nc2cc(SCC(=O)O)c(O)c3ccccc23)c1 [compound 8],RPE1 cell growth,"[1]; 100 nM, 0 h",18 and 24 and 13
same,RPE1 cell growth,"[1]; 100 nM, 6 h",23 and 30 and 15
same,RPE1 cell growth,"[1]; 100 nM, 8 h",25 and 30 and 16
same,RPE1 cell growth,"[1]; 100 nM, 10 h",25 and 32 and 17
same,RPE1 cell growth,"[1]; 100 nM, 12 h",24 and 34 and 18
same,RPE1 cell growth,"[1]; 1 uM, 0 h",19 and 20 and 26
same,RPE1 cell growth,"[1]; 1 uM, 2 h",20 and 28
same,RPE1 cell growth,"[1]; 1 uM, 4 h",20 and 25 and 32
same,RPE1 cell growth,"[1]; 1 uM, 6 h",21 and 26 and 32
same,RPE1 cell growth,"[1]; 1 uM, 8 h",22 and 29 and 35
same,RPE1 cell growth,"[1]; 1 uM, 10 h",25 and 29 and 37
same,RPE1 cell growth,"[1]; 1 uM, 12 h",27 and 32 and 38
same,RPE1 cell growth,"[1]; 1 uM, 14 h",29
same,RPE1 cell growth,"[1]; 3 uM, 0 h",20 and 28 and 21
same,RPE1 cell growth,"[1]; 3 uM, 2 h",23 and 30 and 21
same,RPE1 cell growth,"[1]; 3 uM, 4 h",25 and 34 and 21
same,RPE1 cell growth,"[1]; 3 uM, 6 h",25 and 34 and 23
same,RPE1 cell growth,"[1]; 3 uM, 8 h",29 and 35 and 24
same,RPE1 cell growth,"[1]; 3 uM, 10 h",29 and 37 and 26
same,RPE1 cell growth,"[1]; 3 uM, 12 h",30 and 38 and 28
same,RPE1 cell growth,"[1]; 3 uM, 14 h",32 and 42 and 30
same,RPE1 cell growth,"[1]; 5 uM, 0 h",17 and 27 and 20
same,RPE1 cell growth,"[1]; 5 uM, 2 h",20 and 30
same,RPE1 cell growth,"[1]; 5 uM, 4 h",22 and 33 and 21
same,RPE1 cell growth,"[1]; 5 uM, 6 h",22 and 36
same,RPE1 cell growth,"[1]; 5 uM, 8 h",26 and 37 and 23
same,RPE1 cell growth,"[1]; 5 uM, 10 h",25 and 39
same,RPE1 cell growth,"[1]; 5 uM, 12 h",28 and 40 and 27
same,RPE1 cell growth,"[1]; 5 uM, 14 h",29 and 45
same,RPE1 cell growth,"[1]; 10 uM, 0 h",17 and 22 and 19
same,RPE1 cell growth,"[1]; 10 uM, 2 h",20 and 23
same,RPE1 cell growth,"[1]; 10 uM, 4 h",23 and 26 and 20
same,RPE1 cell growth,"[1]; 10 uM, 6 h",24 and 31 and 22
same,RPE1 cell growth,"[1]; 10 uM, 8 h",25 and 29 and 23
same,RPE1 cell growth,"[1]; 10 uM, 10 h",26 and 28 and 25
same,RPE1 cell growth,"[1]; 10 uM, 12 h",28 and 32 and 27
same,"normalized FP signal, p62 LIR tracer displacement",[2]; [5],74.4737 and 78.6842
same,"normalized FP signal, p62 LIR tracer displacement",[2]; [6],94.4737 and 95.2632
same,"normalized FP signal, p62 LIR tracer displacement",[2]; [7],95 and 102.105
same,"normalized FP signal, p62 LIR tracer displacement",[2]; log10 concentration [M] -5,92.8947 and 101.053
same,"normalized FP signal, p62 LIR tracer displacement",[2]; [8],97.1053 and 100
same,"normalized FP signal, p62 LIR tracer displacement",[2]; [9],93.6842 and 95.5263
same,"normalized FP signal, p62 LIR tracer displacement",[2]; [10],100 and 92.1053
same,"normalized FP signal, p62 LIR tracer displacement",[2]; [11],96.8421 and 99.4737
same,"normalized FP signal, p62 LIR tracer displacement",[2]; [12],97.8947 and 102.368
same,"normalized FP signal, p62 LIR tracer displacement",[2]; [13],96.5789 and 100
same,"normalized FP signal, p62 LIR tracer displacement",[2]; [14],100.789 and 96.5789
same,"compound titration LC3B (displacement curve, FP signal)",[2]; [5],74.4737 and 78.6842
same,"compound titration LC3B (displacement curve, FP signal)",[2]; [6],94.4737 and 95.2632
same,"compound titration LC3B (displacement curve, FP signal)",[2]; [7],95 and 102.105
same,"compound titration LC3B (displacement curve, FP signal)",[2]; log10 concentration [M] -5,92.8947 and 101.053
same,"compound titration LC3B (displacement curve, FP signal)",[2]; [8],97.1053 and 100
same,"compound titration LC3B (displacement curve, FP signal)",[2]; [9],93.6842 and 95.5263
same,"compound titration LC3B (displacement curve, FP signal)",[2]; [10],100 and 92.1053
same,"compound titration LC3B (displacement curve, FP signal)",[2]; [11],96.8421 and 99.4737
same,"compound titration LC3B (displacement curve, FP signal)",[2]; [12],97.8947 and 102.368
same,"compound titration LC3B (displacement curve, FP signal)",[2]; [13],96.5789 and 100
same,"compound titration LC3B (displacement curve, FP signal)",[2]; [14],100.789 and 96.5789
same,outcome of ITC titration,[3],induced protein precipitation
same,"compound titration LC3A (displacement curve, FP signal)",[4]; [5],97.6316 and 96.3158
same,"compound titration LC3A (displacement curve, FP signal)",[4]; [6],102.368 and 100.263
same,"compound titration LC3A (displacement curve, FP signal)",[4]; [7],93.6842 and 106.579
same,"compound titration LC3A (displacement curve, FP signal)",[4]; log10 concentration [M] -5,101.842 and 99.2105
same,"compound titration LC3A (displacement curve, FP signal)",[4]; [8],105 and 102.368
same,"compound titration LC3A (displacement curve, FP signal)",[4]; [9],101.842 and 94.2105
same,"compound titration LC3A (displacement curve, FP signal)",[4]; [10],98.9474 and 95.2632
same,"compound titration LC3A (displacement curve, FP signal)",[4]; [11],98.4211
same,"compound titration LC3A (displacement curve, FP signal)",[4]; [12],101.842 and 96.5789
same,"compound titration LC3A (displacement curve, FP signal)",[4]; [13],97.8947 and 91.3158
same,"compound titration LC3A (displacement curve, FP signal)",[4]; [14],102.105 and 89.4737
